“And” between values parts separate entries of the source, which are not always exact repeats. Equal values may be shown once.
Assays:
Assay type in all cases: cell-based
IKZF3 Aiolos = IKZF3 Aiolos (Homo sapiens, UniProt Q96SW2+Q9UKT9); test: Jurkat Cellular Degradation Assay; design: fluorescently labelled antibodies against Helios, Ikaros and Aiolos; endogenous in cells; host or cells: Jurkat cells; settings: Jurkat cells, 24 h; for DC50: 50% reduction of protein vs DMSO alone; for IKZF3 Aiolos max % deg. observed: 100% = complete degradation
Sequence of IKZF3 Aiolos (Q9UKT9 whole entry): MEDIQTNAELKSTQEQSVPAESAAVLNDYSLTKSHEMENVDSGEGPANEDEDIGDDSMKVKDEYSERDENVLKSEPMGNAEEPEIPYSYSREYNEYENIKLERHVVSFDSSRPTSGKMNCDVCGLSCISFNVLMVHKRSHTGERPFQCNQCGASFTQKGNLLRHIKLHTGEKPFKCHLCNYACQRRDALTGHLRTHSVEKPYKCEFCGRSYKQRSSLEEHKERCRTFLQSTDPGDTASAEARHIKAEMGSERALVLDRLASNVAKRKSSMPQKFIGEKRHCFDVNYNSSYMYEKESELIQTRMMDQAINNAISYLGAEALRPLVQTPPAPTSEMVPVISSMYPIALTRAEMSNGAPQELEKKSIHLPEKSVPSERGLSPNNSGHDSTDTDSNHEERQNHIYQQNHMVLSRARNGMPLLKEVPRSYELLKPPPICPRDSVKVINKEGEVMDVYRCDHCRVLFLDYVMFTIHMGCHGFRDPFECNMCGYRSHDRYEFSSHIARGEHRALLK
Sequence of IKZF3 Aiolos (Q96SW2 whole entry): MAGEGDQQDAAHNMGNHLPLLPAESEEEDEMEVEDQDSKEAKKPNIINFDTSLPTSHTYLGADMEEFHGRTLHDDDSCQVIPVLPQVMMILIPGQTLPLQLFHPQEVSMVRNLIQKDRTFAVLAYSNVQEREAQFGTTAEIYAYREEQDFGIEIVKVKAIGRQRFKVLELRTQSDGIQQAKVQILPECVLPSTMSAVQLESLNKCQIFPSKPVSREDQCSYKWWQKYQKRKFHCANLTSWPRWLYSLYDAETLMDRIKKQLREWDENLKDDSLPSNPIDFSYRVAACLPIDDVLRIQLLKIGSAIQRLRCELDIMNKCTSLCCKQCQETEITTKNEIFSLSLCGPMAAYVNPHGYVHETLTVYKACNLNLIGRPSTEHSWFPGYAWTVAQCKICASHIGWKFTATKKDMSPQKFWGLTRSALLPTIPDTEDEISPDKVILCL
Sequence of IKZF3 Aiolos (Q16531 whole entry partner): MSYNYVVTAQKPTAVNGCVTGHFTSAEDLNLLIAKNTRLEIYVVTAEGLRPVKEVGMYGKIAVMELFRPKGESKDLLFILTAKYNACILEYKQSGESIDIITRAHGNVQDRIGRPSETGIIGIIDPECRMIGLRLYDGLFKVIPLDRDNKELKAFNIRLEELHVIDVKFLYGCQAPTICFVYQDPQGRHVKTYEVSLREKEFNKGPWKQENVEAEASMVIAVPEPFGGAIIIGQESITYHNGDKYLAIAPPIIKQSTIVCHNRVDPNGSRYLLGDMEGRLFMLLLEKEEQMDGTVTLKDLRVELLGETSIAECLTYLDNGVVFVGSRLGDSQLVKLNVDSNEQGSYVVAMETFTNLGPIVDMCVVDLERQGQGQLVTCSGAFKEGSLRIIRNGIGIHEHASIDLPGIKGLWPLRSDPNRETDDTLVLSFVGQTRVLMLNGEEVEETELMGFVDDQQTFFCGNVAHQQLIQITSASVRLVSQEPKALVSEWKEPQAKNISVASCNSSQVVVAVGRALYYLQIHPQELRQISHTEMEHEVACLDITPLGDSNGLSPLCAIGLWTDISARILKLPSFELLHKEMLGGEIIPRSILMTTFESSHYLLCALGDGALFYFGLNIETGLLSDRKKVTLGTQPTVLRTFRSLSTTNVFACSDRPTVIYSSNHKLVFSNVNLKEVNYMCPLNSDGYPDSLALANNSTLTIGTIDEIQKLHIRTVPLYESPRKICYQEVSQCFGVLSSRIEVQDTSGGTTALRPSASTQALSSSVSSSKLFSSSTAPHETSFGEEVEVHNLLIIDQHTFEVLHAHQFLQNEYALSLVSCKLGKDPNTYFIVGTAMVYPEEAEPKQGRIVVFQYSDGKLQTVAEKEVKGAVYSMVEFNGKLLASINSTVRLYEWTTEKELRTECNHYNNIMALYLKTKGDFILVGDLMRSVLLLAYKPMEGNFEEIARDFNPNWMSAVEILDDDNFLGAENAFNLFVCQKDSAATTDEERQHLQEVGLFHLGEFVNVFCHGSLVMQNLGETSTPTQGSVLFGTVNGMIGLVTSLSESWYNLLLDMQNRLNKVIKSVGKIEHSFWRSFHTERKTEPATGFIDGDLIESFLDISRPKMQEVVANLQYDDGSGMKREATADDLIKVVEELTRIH
Method: (§1) Jurkat cells were plated at 80,000 cells/well in 40 µL RPMI + 10% FBS in a 384-well cell culture plate prior to using acoustic dispensing technology for adding a compound of interest. Cell cultures were incubated for 24 h at 37 °C and 5% CO2. In order to facilitate analysis, cell cultures were spun down at 200 rpm for 5 min and the supernatant was discarded. After shaking the plate to dislodge the cell pellet, cells were resuspended in 50 µL of Fixation Buffer (eBioscience FoxP3 buffer set 00-5523-00) for 60 min at room temperature. After centrifuging and discarding the supernatant, cells were permeabilized with 50 µL of Permeabilization buffer (eBioscience FoxP3 buffer set 00-5523-00) for 10 min at room temperature. Following permeabilization, cells were spun down and the supernatant was replaced with 20 µL fluorescently labelled antibodies against Helios, Ikaros and Aiolos or corresponding Isotype controls in 1× Permeabilization buffer (Ikaros-Alexa488 [Biolegend, Cat #368408, 1:50], Helios-PE [CST, Cat #29360, 1:50]. Aiolos-Alexa647 [Biolegend, Cat #371106 Biolegend, 1:25]) and staining reactions were incubated for 1 h at room temperature while protected from light. Subsequently, 30 µL of 1× Permeabilization buffer was added prior to centrifuging the cells and discarding the supernatant. Stained cells were resuspended in 25 µL of flow cytometry staining buffer [PBS + 0.2% bovine serum albumin (BSA)] and analyzed using an Intellicyt Ique Plus flow cytometer. TABLE A-1

IKZF2 Helios [1] = molecular target: T1, IKZF2 Helios (Homo sapiens, UniProt Q96SW2+Q9UKS7); test: Jurkat Cellular Degradation Assay; design: fluorescently labelled antibodies against Helios, Ikaros and Aiolos; endogenous in cells; host or cells: Jurkat cells; settings: for DC50: 50% reduction of protein vs DMSO alone; for IKZF2** Helios max % deg. observed: Table E summary, Jurkat Cellular Degradation Assay (A-1)
T1 sequence (Q9UKS7 whole entry): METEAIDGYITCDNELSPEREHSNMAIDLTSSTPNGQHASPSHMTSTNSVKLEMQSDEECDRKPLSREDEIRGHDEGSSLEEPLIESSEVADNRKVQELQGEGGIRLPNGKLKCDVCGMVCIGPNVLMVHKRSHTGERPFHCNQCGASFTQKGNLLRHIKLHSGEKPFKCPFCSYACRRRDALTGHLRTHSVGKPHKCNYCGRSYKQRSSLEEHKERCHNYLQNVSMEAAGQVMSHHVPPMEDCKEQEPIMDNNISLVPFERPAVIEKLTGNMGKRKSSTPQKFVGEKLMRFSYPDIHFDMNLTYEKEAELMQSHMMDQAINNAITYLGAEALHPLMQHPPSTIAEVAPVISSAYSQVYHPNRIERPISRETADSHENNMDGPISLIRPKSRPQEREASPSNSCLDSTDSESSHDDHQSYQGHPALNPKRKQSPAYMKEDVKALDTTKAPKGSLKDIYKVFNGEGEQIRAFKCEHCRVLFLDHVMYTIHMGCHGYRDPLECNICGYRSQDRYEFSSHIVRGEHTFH
T1 sequence (Q96SW2 whole entry): as the sequence (Q96SW2 whole entry) above
T1 sequence (Q16531 whole entry partner): as the sequence (Q16531 whole entry partner) above
Method: as §1

IKZF1 Ikaros = IKZF1 Ikaros (Homo sapiens, UniProt Q13422+Q96SW2); test: Jurkat Cellular Degradation Assay; design: fluorescently labelled antibodies against Helios, Ikaros and Aiolos; endogenous in cells; host or cells: Jurkat cells; settings: Jurkat cells, 24 h; for DC50: 50% reduction of protein vs DMSO alone; for IKZF1 Ikaros max % deg. observed: 100% = complete degradation
Sequence of IKZF1 Ikaros (Q13422 whole entry): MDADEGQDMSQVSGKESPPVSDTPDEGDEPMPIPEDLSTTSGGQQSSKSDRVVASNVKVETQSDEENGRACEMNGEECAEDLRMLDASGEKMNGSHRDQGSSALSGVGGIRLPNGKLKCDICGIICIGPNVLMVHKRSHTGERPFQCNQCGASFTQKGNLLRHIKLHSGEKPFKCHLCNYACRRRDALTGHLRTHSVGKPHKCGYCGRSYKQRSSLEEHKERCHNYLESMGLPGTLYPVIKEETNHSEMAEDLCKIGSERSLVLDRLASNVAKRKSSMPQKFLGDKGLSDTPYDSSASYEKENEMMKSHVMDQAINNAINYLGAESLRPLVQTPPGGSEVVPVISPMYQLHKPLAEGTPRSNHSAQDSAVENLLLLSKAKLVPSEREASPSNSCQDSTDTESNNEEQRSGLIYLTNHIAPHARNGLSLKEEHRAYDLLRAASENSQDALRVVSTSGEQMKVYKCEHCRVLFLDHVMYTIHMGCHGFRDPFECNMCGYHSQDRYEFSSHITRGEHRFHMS
Sequence of IKZF1 Ikaros (Q96SW2 whole entry): as the sequence (Q96SW2 whole entry) above
Sequence of IKZF1 Ikaros (Q16531 whole entry partner): as the sequence (Q16531 whole entry partner) above
Method: as §1

IKZF2 Helios [2] = molecular target: T1, IKZF2 Helios; test: Human Regulatory T Cell Reprogramming Assay; design: endogenous in cells; host or cells: primary human CD4+CD127lowCD25+ Treg cells from healthy leukopaks; settings: CD4+CD127lowCD25+ Treg cells; for IKZF2 Helios max % deg. observed: 12-13 days with compound; for DC50: 12-13 days, vs DMSO alone
Method: Human CD4^+ T cells were isolated from fresh healthy leukopaks (Stemcell Technologies) using the RosetteSep Human CD4^+ T cell enrichment cocktail (Stemcell Technologies) and Ficoll density gradient centrifugation. Leukopaks were diluted with an equal volume of phosphate-buffered saline (PBS [Gibco]) supplemented with 2% fetal bovine serum (FBS, VWR Lifescience) and incubated with RosetteSep Human CD4^+ T cell enrichment cocktail for 20 minutes before layering on Ficoll-Paque Plus solution (GE Health Care). The cell-rich interface layer was harvested and washed twice with PBS supplemented with 2% FBS. Regulatory T cells were then isolated manually using the EasySep Human CD4^+CD127^lowCD25^+ Regulatory T cell isolation kit (Stemcell Technologies) according to the manufacturer's instructions. Cells were rested overnight in Roswell Park Memorial Institute (RPMI) 1640 media (Gibco) supplemented with 10% FBS, Pen/Strep (Gibco), MEM-NEAA (Gibco), and sodium pyruvate (Gibco) in a humidified incubator (37 °C, 5% CO2). Cells were then stained for CD4 (clone: RPA-T4, Biolegend), CD25 (clone: 2A3, BD Biosciences), and CD127 (clone: hIL-7R-M21, BD Biosciences). CD4^+CD127^lowCD25^+ cells were sorted on a BD FACS Aria Fusion sorter to a purity of 95%) or greater. Sorted cells were immediately used or cryopreserved for downstream assays.
Fresh or cryopreserved FACS-sorted CD4^+CD127^lowCD25^+ Treg cells were cultured at 25,000-50,000 cells/well of 96-well round bottom plates in RPMI 1640 media (Gibco) supplemented with 10% FBS, Pen/Strep (Gibco), MEM-NEAA (Gibco), and sodium pyruvate (Gibco). Cells were stimulated with Treg Xpander beads (Thermo Fisher) at cells-to-beads ratio of 1:4 in the presence of 500 U/mL recombinant human IL-2 (Proleukin). Compounds were added at titrated doses and cells were incubated at 37 °C, 5% CO2 for 12-13 days. Recombinant human IL-2 and compound were replenished every 2-3 days during the entire culture duration. On day 12 or 13, cells were restimulated with phorbol 12-myristate 13-acetate (PMA,) and ionomycin in the presence of the protein transport inhibitors brefeldin A and monensin (eBioscience Cell Stimulation Cocktail plus protein transport inhibitors, 500x, Catalog number 00-4975-93) before proceeding with flow cytometry staining and analysis.
For flow cytometry staining, cells were washed twice with flow cytometry staining buffer (Thermo Fisher) and incubated in Human Tru-stain Fc block (Biolegend) for 10 minutes before adding eFluor780 viability dye (Thermo Fisher) and surface marker antibody cocktail for 30 minutes at 4 °C. Cells were then fixed and permeabilized by incubation with FoxP3 transcription factor staining buffer (Thermo Fisher) for 30 minutes at 4 °C as per the kit manufacturer's instructions. Cells were washed twice with the Perm/Wash buffer supplied in the kit as per the manufacturer's instructions and incubated overnight at 4 °C with an intracellular antibody cocktail comprised of antibodies specific for the transcription factors shown in Table C. Cells were washed twice with Perm/Wash buffer and resuspended in flow cytometry staining buffer (Thermo Fisher) prior to acquisition. Sample acquisition and analysis was performed using a BD LSRFortessa (BD Biosciences) flow cytometer. Single stain controls for each fluorochrome were prepared using UltraComp eBead Compensation Beads (Thermo Fisher). Data were analyzed using FlowJo version 10 and GraphPad Prism Software. TABLE C

Row | SMILES | DC50 (IKZF3 Aiolos) [µM] | IKZF3 Aiolos max % deg. observed (IKZF3 Aiolos) | DC50 (IKZF2 Helios [1]; Jurkat cells, 24 h) [µM] | IKZF2** Helios max % deg. observed (IKZF2 Helios [1]) [%] | DC50 (IKZF1 Ikaros) [µM] | IKZF1 Ikaros max % deg. observed (IKZF1 Ikaros) | IKZF2 Helios max % deg. observed (IKZF2 Helios [2]) [%] | DC50 (IKZF2 Helios [2]) [µM] | IKZF2 Helios max % deg. observed (IKZF2 Helios [1]; Jurkat cells, 24 h, 100% = complete degradation) [%]
1 | COC1CCN(Cc2ccc(-c3ccc(-c4cn(C5CCC(=O)NC5=O)c(=O)o4)c(F)c3)nc2N)CC1 (centres unmarked) [Example 4, 3-(5-(4-(6-amino-5-((4-methoxypiperidin-1-yl)methyl)pyridin-2-yl)-2-fluorophenyl)-2-oxooxazol-3(2H)-yl)piperidine-2,6-dione] | 3.01 | 61% | 0.034 | 91 | 1.2 | 69% | 66 | 0.155 | –
2 | O=C1CCC(n2cc(-c3ccccc3)oc2=O)C(=O)N1 (centres unmarked) [Comparative Compound A, 3-(2-oxo-5-phenyloxazol-3(2H)-yl)piperidine-2,6-dione, reference compound] | > 10 | 52% | > 10 | 27 | 1.52 | 70% | 1 | > 1 | –
3 | CO[C@H]1C[C@H](Oc2c(C)cc(-c3ccc(-c4cn(C5CCC(=O)NC5=O)c(=O)o4)c(F)c3)nc2N)C1 (relative stereo) [Example 2, trans 3-(5-(4-(6-amino-5-(3-methoxycyclobutoxy)-4-methylpyridin-2-yl)-2-fluorophenyl)-2-oxooxazol-3(2H)-yl)piperidine-2,6-dione] | 2.32 | – | 0.037 | 92 | 4.38 | – | 74 | 0.205 | –
4 | O=C1CCC(n2cc(-c3ccc(Br)cc3F)oc2=O)C(=O)N1 (centres unmarked) [Comparative Compound B, 3-(5-(4-bromo-2-fluorophenyl)-2-oxooxazol-3(2H)-yl)piperidine-2,6-dione, reference compound] | > 10 | 25% | > 10 | 11 | > 10 | 24% | 6 | > 1 | –

Results, then the compound that gave them:

Row | DC50 (IKZF3 Aiolos) [µM] | IKZF3 Aiolos max % deg. observed (IKZF3 Aiolos) | DC50 (IKZF2 Helios [1]; Jurkat cells, 24 h) [µM] | IKZF2** Helios max % deg. observed (IKZF2 Helios [1]) [%] | DC50 (IKZF1 Ikaros) [µM] | IKZF1 Ikaros max % deg. observed (IKZF1 Ikaros) | IKZF2 Helios max % deg. observed (IKZF2 Helios [2]) [%] | DC50 (IKZF2 Helios [2]) [µM] | IKZF2 Helios max % deg. observed (IKZF2 Helios [1]; Jurkat cells, 24 h, 100% = complete degradation) [%] | SMILES
5 | 9.49 | 48% and 54% | 0.036 | 92 | 5.6 | 64% and 57% | 73 | 0.247 | – | Cc1cc(-c2ccc(-c3cn(C4CCC(=O)NC4=O)c(=O)o3)c(F)c2)nc(N)c1NCC1CCOCC1 (centres unmarked) [Example 3, 3-(5-(4-(6-amino-4-methyl-5-(((tetrahydro-2H-pyran-4-yl)methyl)amino)pyridin-2-yl)-2-fluorophenyl)-2-oxooxazol-3(2H)-yl)piperidine-2,6-dione]
6 | > 10 | 38% | 0.05 | 92 | 7.9 | 51% | – | – | 92 | Cc1cc(-c2ccc(-c3cn(C4CCC(=O)NC4=O)c(=O)o3)c(F)c2)nc(N)c1COC1CCOCC1 (centres unmarked) [Example 5, 3-(5-(4-(6-Amino-4-methyl-5-(((tetrahydro-2H-pyran-4-yl)oxy)methyl)pyridin-2-yl)-2-fluorophenyl)-2-oxooxazol-3(2H)-yl)piperidine-2,6-dione]
7 | 0.6 | 55% | 0.022 | 89 | 1.51 | 63% | 72 | 0.045 | – | CC1(C)Cc2cc(-c3ccc(-c4cn(C5CCC(=O)NC5=O)c(=O)o4)c(F)c3)nc(N)c2O1 (centres unmarked) [Example 1, 3-(5-(4-(7-amino-2,2-dimethyl-2,3-dihydrofuro[2,3-c]pyridin-5-yl)-2-fluorophenyl)-2-oxooxazol-3(2H)-yl)piperidine-2,6-dione]
